BindingDB's records for PubMed 7796807 (Synaptic Pharmaceutical, 1995)

Each compound was assayed against 5-hydroxytryptamine receptor 4 (Rattus norvegicus, UniProt Q62758).
Sequence of 5-hydroxytryptamine receptor 4 (Q62758 whole entry): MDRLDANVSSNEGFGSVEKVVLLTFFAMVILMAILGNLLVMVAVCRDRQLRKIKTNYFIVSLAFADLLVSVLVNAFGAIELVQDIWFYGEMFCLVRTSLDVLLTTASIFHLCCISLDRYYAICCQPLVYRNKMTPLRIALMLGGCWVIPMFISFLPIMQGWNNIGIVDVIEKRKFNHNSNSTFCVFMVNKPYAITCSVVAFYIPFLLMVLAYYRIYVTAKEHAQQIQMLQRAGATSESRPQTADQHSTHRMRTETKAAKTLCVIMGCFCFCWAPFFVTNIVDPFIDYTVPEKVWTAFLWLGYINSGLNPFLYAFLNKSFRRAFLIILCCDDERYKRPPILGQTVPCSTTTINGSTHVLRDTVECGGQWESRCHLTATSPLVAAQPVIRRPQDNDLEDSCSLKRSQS

Compound	Ki [nM]
CNS(=O)(=O)Cc1ccc2[nH]cc(CCN(C)C)c2c1 [Sumax]	1000
CN1C2CCC1CC(OC(=O)c1c[nH]c3ccccc13)C2 (centres undefined)	544
COc1ccc2[nH]cc(CCN)c2c1 [tryptamine, 5-Methoxy]	401
O=C(c1ccc(F)cc1)C1CCN(CCn2c(=O)[nH]c3ccccc3c2=O)CC1 [3-(2-{4-[(4-fluorophenyl)carbonyl]piperidin-1-yl}ethyl)-1,2,3,4-tetrahydroquinazoline-2,4-dione]	1000
COc1cc(N)c(Cl)cc1C(=O)NC1CCN2CCCC1C2 (centres undefined) [NSC_3035240]	243
COc1cc(N)c(Cl)cc1C(=O)NC1CN2CCC1CC2 (centres undefined) [ZACOPRIDE,R]	808
Cn1cc(CCN)c2cc(O)ccc21 [5-HT,omega-N-Me]	1450
CCCN(CCC)C1CCc2cccc(O)c2C1 (centres undefined)	1000
CCN(CC)C(=O)[C@@H]1C=C2c3cccc4[nH]cc(c34)C[C@H]2N(C)C1 [(4R,7R)-N,N-diethyl-6-methyl-6,11-diazatetracyclo[7.6.1.0^{2,7}.0^{12,16}]hexadeca-1(16),2,9,12,14-pentaene-4-carboxamide]	1000
